Measured values reported in patent US9453026B2, “ACC inhibitors and uses thereof” (Gilead Apollo, Inc., priority 2011, dated 2016).

target: ACC1 (Homo sapiens, UniProt Q13085); experiment: In vitro ACC1 inhibition assay (ADP-Glo); type: biochemical; conditions: read-out: ACC1
Description: An exemplary procedure for the in vitro ACC inhibition assay, which can be used to determine the inhibitory action of compounds of the invention toward either ACC1 or ACC2, follows. The ADP-Glo™ Kinase Assay kit from Promega was used. The ADP-Glo™ Kinase Assay is a luminescent ADP detection assay to measure enzymatic activity by quantifying the amount of ADP produced during an enzyme reaction. The assay is performed in two steps; first, after the enzyme reaction, an equal volume of ADP-Glo™ Reagent is added to terminate the reaction and deplete the remaining ATP. Second, the Kinase Detection Reagent is added to simultaneously convert ADP to ATP and allow the newly synthesized ATP to be measured using a luciferase/luciferin reaction. Luminescence can be correlated to ADP concentrations by using an ATP-to-ADP conversion curve. The detailed procedure is as follows. 50 μL of the compound being tested (600 uM in DMSO) was added to a 384-well dilution plate. The compound was diluted 1:3 in succession in DMSO for each row for 11 wells. 0.5 μL ACC2 working solution was added to 384-well white Optiplate assay plate. 0.5 μL diluted compound solution in each column from step 2 to assay plate, each row containing 2 replicates. […] The plates were incubated at room temperature for 15 minutes. 5 μL substrate working solution was added to each well to initiate reaction. […] Plates were incubated at room temperature for 60 minutes. 10 μL ADP glo reagent was added. Plates were incubated at room temperature for 40 minutes. 20 μL kinase detection reagent was added.
Data for each concentration, as well as the positive and negative controls were averaged, and the standard deviation calculated. Percent inhibition was calculated by the formula: 100× (average negative control−compound)/(average negative control−average positive control). The IC50 for each compound was calculated by fitting the data with a non-linear regression equation: Y=Bottom+(Top-Bottom)/(1+10^((Log IC50−X)*HillSlope)), where X is the log of compound concentration and Y is percent inhibition.
The compound numbers correspond to the compound numbers in Table 1.

Cc1c(-c2ncco2)sc2c1c(=O)n(C(C)(C)C(N)=O)c(=O)n2C[C@H](OC1CCOCC1)c1ccccc1O [I-283, 2-[1-[(2R)-2-(2-hydroxyphenyl)-2-(oxan-4-yloxy)ethyl]-5-methyl-6-(1,3-oxazol-2-yl)-2,4-dioxo-1H,2H,3H,4H-thieno[2,3-d]pyrimidin-3-yl]-2-methylpropanamide] and Cc1c(-c2ncco2)sc2c1c(=O)n(C(C)(C)C(=O)N1CCC1)c(=O)n2C[C@H](OC1CCOCC1)c1ccccc1Cl [I-253, 3-[1-(azetidin-1-yl)-2-methyl-1-oxopropan-2-yl]-1-[(2R)-2-(2-chlorophenyl)-2-(oxan-4-yloxy)ethyl]-5-methyl-6-(1,3-oxazol-2-yl)-1H,2H,3H,4H-thieno[2,3-d]pyrimidine-2,4-dione] cannot be ordered by IC50: under 0.1 µM for the first, under 1 µM for the second.

target: ACC2 (Homo sapiens, UniProt O00763); experiment: In vitro ACC2 inhibition assay (ADP-Glo); type: biochemical; conditions: read-out: ACC2
Sequence (O00763 whole entry, species assumed): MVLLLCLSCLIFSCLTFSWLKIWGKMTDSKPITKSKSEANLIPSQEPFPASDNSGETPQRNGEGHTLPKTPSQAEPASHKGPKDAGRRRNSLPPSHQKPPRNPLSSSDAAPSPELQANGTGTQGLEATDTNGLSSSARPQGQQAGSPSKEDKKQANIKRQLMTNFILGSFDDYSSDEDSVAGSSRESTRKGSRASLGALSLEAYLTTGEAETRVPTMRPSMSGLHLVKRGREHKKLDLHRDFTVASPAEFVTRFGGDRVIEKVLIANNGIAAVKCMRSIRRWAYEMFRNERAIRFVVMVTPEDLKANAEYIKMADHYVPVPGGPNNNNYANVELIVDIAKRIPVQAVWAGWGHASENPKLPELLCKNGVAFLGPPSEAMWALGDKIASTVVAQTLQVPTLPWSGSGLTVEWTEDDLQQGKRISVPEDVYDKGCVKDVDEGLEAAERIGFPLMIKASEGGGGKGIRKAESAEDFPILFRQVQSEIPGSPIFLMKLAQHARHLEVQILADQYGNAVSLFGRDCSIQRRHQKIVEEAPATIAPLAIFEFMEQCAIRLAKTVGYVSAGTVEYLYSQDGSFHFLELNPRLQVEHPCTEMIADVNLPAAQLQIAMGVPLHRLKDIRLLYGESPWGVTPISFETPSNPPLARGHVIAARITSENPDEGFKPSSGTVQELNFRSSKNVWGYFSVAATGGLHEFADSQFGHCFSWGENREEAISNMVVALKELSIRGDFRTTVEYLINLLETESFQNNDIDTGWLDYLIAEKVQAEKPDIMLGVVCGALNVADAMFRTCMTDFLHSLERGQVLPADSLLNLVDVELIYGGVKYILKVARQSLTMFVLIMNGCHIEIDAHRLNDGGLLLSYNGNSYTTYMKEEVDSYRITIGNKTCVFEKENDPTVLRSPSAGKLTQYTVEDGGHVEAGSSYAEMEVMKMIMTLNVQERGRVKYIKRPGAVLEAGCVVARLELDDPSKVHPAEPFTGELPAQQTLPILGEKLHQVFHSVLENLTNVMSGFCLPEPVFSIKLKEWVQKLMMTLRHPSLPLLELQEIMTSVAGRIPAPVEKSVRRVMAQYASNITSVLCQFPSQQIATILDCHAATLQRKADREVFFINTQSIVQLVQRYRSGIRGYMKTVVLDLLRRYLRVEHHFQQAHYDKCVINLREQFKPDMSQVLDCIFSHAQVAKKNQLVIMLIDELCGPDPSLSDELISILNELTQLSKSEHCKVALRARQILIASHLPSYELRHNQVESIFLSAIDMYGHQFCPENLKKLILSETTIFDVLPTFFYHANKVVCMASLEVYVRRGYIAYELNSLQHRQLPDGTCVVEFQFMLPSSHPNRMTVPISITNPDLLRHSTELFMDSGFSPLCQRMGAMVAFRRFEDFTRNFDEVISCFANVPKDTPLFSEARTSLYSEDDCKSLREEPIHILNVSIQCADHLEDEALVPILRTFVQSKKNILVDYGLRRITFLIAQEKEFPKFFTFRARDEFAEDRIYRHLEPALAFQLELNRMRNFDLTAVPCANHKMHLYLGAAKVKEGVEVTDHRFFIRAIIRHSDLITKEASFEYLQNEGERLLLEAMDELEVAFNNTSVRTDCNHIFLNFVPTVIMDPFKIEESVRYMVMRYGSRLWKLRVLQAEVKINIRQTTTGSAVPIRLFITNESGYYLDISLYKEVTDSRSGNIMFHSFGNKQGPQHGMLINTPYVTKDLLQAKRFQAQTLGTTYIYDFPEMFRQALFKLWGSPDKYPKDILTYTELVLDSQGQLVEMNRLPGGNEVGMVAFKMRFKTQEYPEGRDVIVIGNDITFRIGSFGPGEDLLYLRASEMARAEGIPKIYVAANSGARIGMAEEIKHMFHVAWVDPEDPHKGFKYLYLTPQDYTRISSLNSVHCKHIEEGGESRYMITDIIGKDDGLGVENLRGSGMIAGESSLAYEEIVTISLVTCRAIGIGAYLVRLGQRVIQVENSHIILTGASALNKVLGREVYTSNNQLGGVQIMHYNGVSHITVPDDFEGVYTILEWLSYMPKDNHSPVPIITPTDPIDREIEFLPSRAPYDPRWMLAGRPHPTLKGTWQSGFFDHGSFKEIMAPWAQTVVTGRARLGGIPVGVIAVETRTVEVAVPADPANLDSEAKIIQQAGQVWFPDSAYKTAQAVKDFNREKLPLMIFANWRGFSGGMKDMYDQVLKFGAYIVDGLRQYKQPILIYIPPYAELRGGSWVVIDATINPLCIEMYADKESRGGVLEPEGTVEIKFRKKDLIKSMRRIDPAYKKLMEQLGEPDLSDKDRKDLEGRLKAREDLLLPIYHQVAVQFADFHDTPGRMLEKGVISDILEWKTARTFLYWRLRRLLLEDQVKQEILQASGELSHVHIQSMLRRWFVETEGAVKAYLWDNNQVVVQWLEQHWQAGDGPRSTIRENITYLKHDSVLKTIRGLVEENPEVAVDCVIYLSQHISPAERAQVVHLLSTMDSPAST
Procedure, shortened: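 Enzyme (human ACC1 or ACC2) and compound, serially diluted 1:3 over 11 points from a 600 uM DMSO stock, were preincubated 15 min before substrate addition.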

Cc1c(-c2ncco2)sc2c1c(=O)n(C(C)(C)C(=O)O)c(=O)n2C[C@H](OC[C@H](C)CO)c1ccccc1 [I-170, 2-(1-((R)-2-((R)-3-hydroxy-2-methylpropoxy)-2-phenylethyl)-5-methyl-6-(oxazol-2-yl)-2,4-dioxo-1,2-dihydrotheno[2,3-d]pyrimidin-3(4H)-yl)-2-methylpropanoic acid] and Cc1c(-c2ncco2)sc2c1c(=O)n(C(C)(C)C(=O)O)c(=O)n2C[C@H](OCC1CCCO1)c1ccccc1 (stereo partly drawn) [I-146, 2-methyl-2-[5-methyl-6-(1,3-oxazol-2-yl)-2,4-dioxo-1-[(2R)-2-(oxolan-2-ylmethoxy)-2-phenylethyl]-1H,2H,3H,4H-thieno[2,3-d]pyrimidin-3-yl]propanoic acid] cannot be ordered by IC50: under 1 µM for the first, under 1 µM for the second.

Cc1c(C(=O)O)sc2c1c(=O)n(CCO)c(=O)n2CCc1ccccc1 [I-5] and CNC(=O)c1sc2c(c1C)c(=O)n(CCO)c(=O)n2CCc1ccccc1 [I-27] cannot be ordered by IC50: over 50 µM for the first, over 50 µM for the second.

Cc1c(-c2ncco2)sc2c1c(=O)n(C(C)(C)C(=O)O)c(=O)n2C[C@H](O[C@H]1CC[C@@](C)(O)CC1)c1ccccc1 [I-168, 2-(1-((R)-2-(((1s,4S)-4-hydroxy-4-methylcyclohexyl)oxy)-2-phenylethyl)-5-methyl-6-(oxazol-2-yl)-2,4-doxo-1,2-dihydrothieno[2,3-d]pyrimidin-3(4H)-yl)-2-methylpropanoic acid] and COCc1ccccc1[C@H](Cn1c(=O)n(C(C)(C)C(=O)O)c(=O)c2c(C)c(-c3ncco3)sc21)OC1CCOCC1 [I-293, 2-[1-[(2R)-2-[2-(methoxymethyl)phenyl]-2-(oxan-4-yloxy)ethyl]-5-methyl-6-(1,3-oxazol-2-yl)-2,4-dioxo-1H,2H,3H,4H-thieno[2,3-d]pyrimidin-3-yl]-2-methylpropanoic acid] cannot be ordered by IC50: under 1 µM for the first, under 0.1 µM for the second.

First: Cc1c(C(=O)OC2CCC2)sc2c1c(=O)n(CC(=O)O)c(=O)n2CCc1ccccc1 [I-86, 2-[6-(cyclobutoxycarbonyl)-5-methyl-2,4-dioxo-1-(2-phenylethyl)-1H,2H,3H,4H-thieno[2,3-d]pyrimidin-3-yl]acetic acid]
Second: Cc1c(C(=O)OCCO)sc2c1c(=O)n(CC(=O)O)c(=O)n2CCc1ccccc1 [I-83, 2-[6-[(2-hydroxyethoxy)carbonyl]-5-methyl-2,4-dioxo-1-(2-phenylethyl)-1H,2H,3H,4H-thieno[2,3-d]pyrimidin-3-yl]acetic acid]
The IC50 of the first is higher: 5 to 20 µM for the first, under 5 µM for the second. The second is the more potent here.

Cc1c(-n2nccn2)sc2c1c(=O)n(C(C)(C)C(=O)O)c(=O)n2CCc1ccccc1 [I-122, 2-methyl-2-[5-methyl-2,4-dioxo-1-(2-phenylethyl)-6-(2H-1,2,3-triazol-2-yl)-1H,2H,3H,4H-thieno[2,3-d]pyrimidin-3-yl]propanoic acid] and CCOC(=O)c1sc2c(c1C)c(=O)n(C(C)(C)C(=O)O)c(=O)n2CC(O)c1ccccc1 (stereo in doubt) [I-103, 2-[6-(ethoxycarbonyl)-1-[(2S)-2-hydroxy-2-phenylethyl]-5-methyl-2,4-dioxo-1H,2H,3H,4H-thieno[2,3-d]pyrimidin-3-yl]-2-methylpropanoic acid] cannot be ordered by IC50: under 1 µM for the first, under 1 µM for the second.

First: CCOC(=O)c1sc2c(c1C)c(=O)n(C(C)(C)C(=O)O)c(=O)n2C[C@@H](OC(C)C)c1ccc(I)cc1 [I-126]
Second: CCOC(=O)c1sc2c(c1C)c(=O)n(C(C)(C)C(=O)O)c(=O)n2C[C@@H](OC(C)C)c1ccccc1 [I-109, 2-[6-(ethoxycarbonyl)-5-methyl-2,4-dioxo-1-[(2S)-2-phenyl-2-(propan-2-yloxy)ethyl]-1H,2H,3H,4H-thieno[2,3-d]pyrimidin-3-yl]-2-methylpropanoic acid]
The IC50 of the first is higher: 20 to 50 µM for the first, 5 to 20 µM for the second. The second is the more potent here.

First: CCOC(=O)c1sc2c(c1C)c(=O)n(CC(C)O)c(=O)n2CCc1ccccc1 (stereo not drawn) [I-62, ethyl 3-(2-hydroxypropyl)-5-methyl-2,4-dioxo-1-(2-phenylethyl)-1H,2H,3H,4H-thieno[2,3-d]pyrimidine-6-carboxylate]
Second: CCOC(=O)c1sc2c(c1C)c(=O)n(CCO)c(=O)n2CCCc1ccccc1 [I-12]
The IC50 of the first is lower: 5 to 20 µM for the first, over 50 µM for the second. The first is the more potent here.

First: CCOC(=O)c1sc2c(c1C)c(=O)n(C(C)(C)C(=O)O)c(=O)n2C[C@H](OC(C)(C)C)c1ccccc1 [I-127, 2-[1-[(2R)-2-(tert-butoxy)-2-phenylethyl]-6-(ethoxycarbonyl)-5-methyl-2,4-dioxo-1H,2H,3H,4H-thieno[2,3-d]pyrimidin-3-yl]-2-methylpropanoic acid]
Second: CCOC(=O)c1sc2c(c1C)c(=O)n(C(C)(C)C(=O)O)c(=O)n2C[C@@H](OCC(C)C)c1ccccc1 [I-124, 2-[6-(ethoxycarbonyl)-5-methyl-1-[(2S)-2-(2-methylpropoxy)-2-phenylethyl]-2,4-dioxo-1H,2H,3H,4H-thieno[2,3-d]pyrimidin-3-yl]-2-methylpropanoic acid]
The IC50 of the first is higher: 20 to 50 µM for the first, 5 to 20 µM for the second.

First: CCOC(=O)c1sc2c(c1C)c(=O)n(CC(=O)O)c(=O)n2CC(OC(C)=O)c1ccccc1 (stereo not drawn) [I-85, 2-[1-[2-(acetyloxy)-2-phenylethyl]-6-(ethoxycarbonyl)-5-methyl-2,4-dioxo-1H,2H,3H,4H-thieno[2,3-d]pyrimidin-3-yl]acetic acid]
Second: CCOC(=O)c1sc2c(c1C)c(=O)n(CC(N)=O)c(=O)n2C[C@@H](OC(C)C)c1ccccc1 [I-113, ethyl 3-(carbamoylmethyl)-5-methyl-2,4-dioxo-1-[(2S)-2-phenyl-2-(propan-2-yloxy)ethyl]-1H,2H,3H,4H-thieno[2,3-d]pyrimidine-6-carboxylate]
The IC50 of the first is lower: under 5 µM for the first, 20 to 50 µM for the second. The first is the more potent here.

CCOC(=O)c1sc2c(c1C)c(=O)n(CCO)c(=O)n2CC [I-11, ethyl 1-ethyl-3-(2-hydroxyethyl)-5-methyl-2,4-dioxo-1H,2H,3H,4H-thieno[2,3-d]pyrimidine-6-carboxylate] and CCOC(=O)c1sc2c(c1C)c(=O)n(CCO)c(=O)n2Cc1csc(C)n1 [I-35] cannot be ordered by IC50: over 50 µM for the first, over 50 µM for the second.

First: CCOC(=O)c1sc2c(c1C)c(=O)n(C(C)(C)C(=O)O)c(=O)n2CCc1ccccc1OC(F)(F)F [I-106, 2-[6-(ethoxycarbonyl)-5-methyl-2,4-dioxo-1-[2-[2-(trifluoromethoxy)phenyl]ethyl]-1H,2H,3H,4H-thieno[2,3-d]pyrimidin-3-yl]-2-methylpropanoic acid]
Second: CCOC(=O)c1sc2c(c1C)c(=O)n(CCO)c(=O)n2CCc1cccc(Cl)c1 [I-21]
The IC50 of the first is lower: under 5 µM for the first, over 50 µM for the second. The first is the more potent here.

Cc1c(-c2ncco2)sc2c1c(=O)n(C(C)(C)C(=O)O)c(=O)n2CCOC1CCOCC1 [I-233, 2-methyl-2-[5-methyl-1-[2-(oxan-4-yloxy)ethyl]-6-(1,3-oxazol-2-yl)-2,4-dioxo-1H,2H,3H,4H-thieno[2,3-d]pyrimidin-3-yl]propanoic acid] and COc1ccccc1[C@H](Cn1c(=O)n(C(C)(C)C(=O)NCCO)c(=O)c2c(C)c(-c3ncco3)sc21)OC(C)C [I-257, N-(2-hydroxyethyl)-2-[1-[(2R)-2-(2-methoxyphenyl)-2-(propan-2-yloxy)ethyl]-5-methyl-6-(1,3-oxazol-2-yl)-2,4-dioxo-1H,2H,3H,4H-thieno[2,3-d]pyrimidin-3-yl]-2-methylpropanamide] cannot be ordered by IC50: under 5 µM for the first, under 5 µM for the second.

Compared with Cc1c(C(=O)OCCO)sc2c1c(=O)n(CCO)c(=O)n2CCc1ccccc1 [I-42, 2-hydroxyethyl 3-(2-hydroxyethyl)-5-methyl-2,4-dioxo-1-(2-phenylethyl)-1H,2H,3H,4H-thieno[2,3-d]pyrimidine-6-carboxylate], Cc1csc2c1c(=O)n(CCO)c(=O)n2CCc1ccccc1 [I-58] is higher in IC50: 20 to 50 µM for the first, over 50 µM for the second.

Compared with COc1ccccc1[C@H](Cn1c(=O)n(CC(N)=O)c(=O)c2c(C)c(Br)sc21)OC1CCOCC1 [I-285, 2-[6-bromo-1-[(2R)-2-(2-methoxyphenyl)-2-(oxan-4-yloxy)ethyl]-5-methyl-2,4-dioxo-1H,2H,3H,4H-thieno[2,3-d]pyrimidin-3-yl]acetamide], CCOC(=O)c1sc2c(c1C)c(=O)n(CCO)c(=O)n2CCC1CCCCC1 [I-28] is higher in IC50: under 5 µM for the first, over 50 µM for the second.
